Source: patent US20240335462A1, “SULFUR/PHOSPHORUS-CONTAINING ARYL COMPOUND AND APPLICATION THEREOF” (MEDSHINE DISCOVERY INC., priority 2021, published 2024)

Experiments:
[1] = system: JAK1/3 signaling pathway (IL-2/pSTAT5); assay: IL-2-stimulated pSTAT5 in human PBMC (flow cytometry); assay type: cell-based; conditions: CD4-positive cells
Protocol: The purpose of this experiment was to detect the inhibitory effect of the compounds on cytokine-activated JAK-STAT signaling pathways in human peripheral blood mononuclear cells (PBMC).
• a) PBMCs frozen in liquid nitrogen were thawed in a 37° C. water bath, and culture medium was added. The mixture was then centrifuged at 320 g for 3 minutes. • b) Cells were resuspended in culture medium, counted, and the cell concentration was adjusted to 5×10^5 cells/mL with culture medium. Subsequently, the cell suspension was inoculated into […] 96-well round-bottom plates, with 200 μL per well. The plates were incubated at 37° C. with 5% CO2 for 90 minutes. • c) Different concentrations of the test compound (starting at 2 μM, 5-fold serial dilution, a total of 8 concentrations) were added, followed by incubation at 37° C. with 5% CO2 for 30 minutes. • d) IL-6 (final concentration at 20 ng/mL) was added to the first round-bottom plate and incubated at 37° C. with 5% CO2 for 15 minutes. • e) IFNα (final concentration at 1000 U/mL) was added to the second round-bottom plate and incubated at 37° C. with 5% CO2 for 15 minutes. • f) IL-2 (final concentration at 4 ng/mL) was added to the third round-bottom plate and incubated at 37° C. with 5% CO2 for 15 minutes. • g) GM-CSF (final concentration at […]) was added to the fourth round-bottom plate and incubated at 37° C. with 5% CO2 for 15 minutes. • h) Cells were centrifuged at 320 g for 3 minutes, and each well was washed once with 200 μL of staining solution. • i) 50 μL of staining solution containing human CD33 antibody was added to each well of the GM-CSF-stimulated culture plate, and 50 μL of staining solution containing CD4 antibody was added to the remaining three culture plates. The staining was performed at 4° C. for 30 minutes. The cells were washed twice with the staining solution. • j) 100 μL of fixation buffer was added to each well, and the cells were fixed at 4° C. for 15 minutes. The cells were washed once with the staining solution. • k) 100 μL of permeabilization buffer was added to each well, and the cells were permeabilized at 4° C. for 20 minutes. The cells were washed twice with the staining solution. • l) 50 μL of staining solution containing human pSTAT1 antibody was added to each well of the IL-6 and IFN-α-stimulated culture plates, and 50 μL of staining solution containing human pSTAT5 antibody was added to each well of the IL-2 and GM-CSF-stimulated culture plates. The staining was performed at room temperature for 15 minutes. The cells were washed twice with the staining solution. • m) The cells were resuspended in 150 μL of staining solution. • n) The fluorescence intensity of pSTAT1 (stimulated by IL-6 and IFN-α) or pSTAT5 (stimulated by IL-2) in CD4-positive cells was detected using flow cytometer. The fluorescence intensity of pSTAT5 (stimulated by GM-CSF) in CD33-positive cells was also detected.
Data analysis was performed using Flowjo software to determine the IC50 of the compounds.

[2] = system: JAK2/2 signaling pathway (TPO/pSTAT5); assay: TPO-induced STAT phosphorylation in human platelet-rich plasma; assay type: cell-based
Protocol: The purpose of this experiment was to detect the inhibitory effect of the compound on the JAK-STAT signaling pathway activated by cytokines in human whole blood or platelet-rich plasma. Fresh human whole blood/platelets were placed in a 96-well plate. The test compound was added and incubated for 1 hour, followed by stimulation with various cytokines. The corresponding STAT phosphorylation levels in different cell populations were analyzed using flow cytometer by means of surface antibody staining and intracellular phosphorylated antibody staining. The experiments using the cytokines IFN-α, […] as stimulants were conducted in human whole blood, whereas the experiment using the cytokine TPO as a stimulant was conducted in platelet-rich plasma.
• a) Fresh blood from volunteers was collected using EDTA anticoagulant tubes and centrifuged at 200 g for 20 minutes to prepare platelet-rich plasma (PRP). • b) 90 μL per well of PRP was rapidly seeded into a 96-well plate and incubated in a cell culture incubator for 15 minutes. […] The plate was then incubated in the incubator for 15 minutes. • d) After incubation, the plate was centrifuged at 1000×g for 10 minutes, then the supernatant was discarded, and the cells were washed twice with 200 μL of PBS. • e) PE-anti-human CD61 antibody was added to each well, followed by incubation at room temperature for 40 minutes. • f) After incubation, the plate was centrifuged at 1000×g for 10 minutes, then the supernatant was discarded, and the cells were washed twice with 200 μL of PBS. • g) The cells were resuspended in 200 μL of pre-cooled Perm Buffer III and permeabilized on ice for 60 minutes. • h) The plate was centrifuged at 1000×g for 10 minutes, then the supernatant was discarded, and the cells were washed twice with pre-cooled PBS. • i) Intracellular anti-pSTAT5 phosphorylated antibody was added thereto, followed by incubation at room temperature for 60 minutes. • j) The cells were washed twice with PBS and resuspended in 200 μL of PBS, and then detected using the CytoFlex S flow cytometer. […]

Row | Compound | IC50 [1] [nM] | IC50 [2] [nM]
1 | CNC(=O)c1nnc(NC(=O)C2CC2)cc1Nc1cccc(-c2ncc(S(=N)(=O)C(C)C)cn2)c1OC (single isomer, unassigned) [WX-011A] | 1310 | > 100000
2 | CNC(=O)c1nnc(NC(=O)C2CC2)cc1Nc1cccc(-c2ncc(S(=N)(=O)C(C)C)cn2)c1OC (single isomer, unassigned) [WX-011B] | 773 | 
3 | CNC(=O)c1cnc(NC(=O)C2CC2)cc1Nc1cccc(-c2ccc(S(=O)(=O)C(C)C)cn2)c1OC.Cl [Hydrochloride of WX-020] | 1400 | 
4 | CNC(=O)c1cnc(NC(=O)C2CC2)cc1Nc1cccc(-c2ncc(S(=O)(=O)C(C)C)cn2)c1OC [WX-019] | 1580 | > 100000
5 | CNC(=O)c1cnc(NC(=O)C2CC2)cc1Nc1cccc(-c2ccc(S(=O)(=O)C(C)C)cn2)c1OC [WX-020] |  | > 100000
6 | CNC(=O)c1nnc(NC(=O)C2CC2)cc1Nc1cccc(-c2ccc(P(=O)(C3CC3)C3CC3)cn2)c1OC [WX-021] | 540 | 
